Laboratory results from ChEMBL document CHEMBL1201862, “PubChem BioAssay data set” (2004).
The source made the active and inactive calls.

What was measured:
[1] = target: T1, Histone-lysine N-methyltransferase NSD2 (Homo sapiens, UniProt O96028); type: biochemical
T1 sequence (O96028 whole entry): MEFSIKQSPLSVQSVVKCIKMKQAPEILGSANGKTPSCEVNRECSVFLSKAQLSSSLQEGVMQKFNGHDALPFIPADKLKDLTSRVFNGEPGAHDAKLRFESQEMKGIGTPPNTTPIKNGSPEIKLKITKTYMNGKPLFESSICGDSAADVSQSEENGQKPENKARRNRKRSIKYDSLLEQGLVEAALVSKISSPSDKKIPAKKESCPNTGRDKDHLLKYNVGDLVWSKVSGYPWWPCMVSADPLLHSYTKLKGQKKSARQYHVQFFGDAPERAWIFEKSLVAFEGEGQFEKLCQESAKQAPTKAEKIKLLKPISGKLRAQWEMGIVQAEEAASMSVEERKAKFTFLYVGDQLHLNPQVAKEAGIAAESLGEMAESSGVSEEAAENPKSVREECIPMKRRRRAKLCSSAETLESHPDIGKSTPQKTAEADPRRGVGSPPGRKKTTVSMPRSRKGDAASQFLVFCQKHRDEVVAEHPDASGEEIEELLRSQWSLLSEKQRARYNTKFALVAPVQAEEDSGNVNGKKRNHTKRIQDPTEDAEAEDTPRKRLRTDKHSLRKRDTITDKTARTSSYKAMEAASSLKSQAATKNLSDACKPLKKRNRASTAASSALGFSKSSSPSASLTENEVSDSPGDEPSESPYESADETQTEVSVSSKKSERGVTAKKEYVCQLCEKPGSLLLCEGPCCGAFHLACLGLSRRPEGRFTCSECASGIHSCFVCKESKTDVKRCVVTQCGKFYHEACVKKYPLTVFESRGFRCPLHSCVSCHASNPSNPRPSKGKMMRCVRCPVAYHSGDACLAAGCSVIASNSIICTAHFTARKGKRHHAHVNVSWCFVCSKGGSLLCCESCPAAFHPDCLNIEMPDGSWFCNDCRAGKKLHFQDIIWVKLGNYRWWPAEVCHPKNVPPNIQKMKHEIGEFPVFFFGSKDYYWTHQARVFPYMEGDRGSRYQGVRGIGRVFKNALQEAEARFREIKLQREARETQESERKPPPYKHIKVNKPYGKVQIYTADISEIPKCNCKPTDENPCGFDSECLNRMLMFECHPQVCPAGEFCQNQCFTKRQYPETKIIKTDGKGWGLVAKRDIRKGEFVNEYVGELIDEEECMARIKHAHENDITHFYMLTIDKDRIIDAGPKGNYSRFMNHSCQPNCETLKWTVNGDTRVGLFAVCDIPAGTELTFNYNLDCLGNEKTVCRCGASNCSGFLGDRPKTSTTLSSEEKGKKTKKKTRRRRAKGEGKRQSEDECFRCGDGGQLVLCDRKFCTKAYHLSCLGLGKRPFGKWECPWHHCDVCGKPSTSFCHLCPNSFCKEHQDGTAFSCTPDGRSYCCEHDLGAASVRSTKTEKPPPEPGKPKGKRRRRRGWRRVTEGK

Protein RecA = target: T2, Protein RecA (Mycobacterium tuberculosis, UniProt P9WHJ3); assay: Fluorescence Cell-Free Homogeneous Dose Retest to Identify Inhibitors of RecA-Intein Splicing Activity. [Related pubchem assays (depositor defined):AID2097, AID2223, AID489010, AID492950]; type: functional
T2 sequence (P9WHJ3 whole entry): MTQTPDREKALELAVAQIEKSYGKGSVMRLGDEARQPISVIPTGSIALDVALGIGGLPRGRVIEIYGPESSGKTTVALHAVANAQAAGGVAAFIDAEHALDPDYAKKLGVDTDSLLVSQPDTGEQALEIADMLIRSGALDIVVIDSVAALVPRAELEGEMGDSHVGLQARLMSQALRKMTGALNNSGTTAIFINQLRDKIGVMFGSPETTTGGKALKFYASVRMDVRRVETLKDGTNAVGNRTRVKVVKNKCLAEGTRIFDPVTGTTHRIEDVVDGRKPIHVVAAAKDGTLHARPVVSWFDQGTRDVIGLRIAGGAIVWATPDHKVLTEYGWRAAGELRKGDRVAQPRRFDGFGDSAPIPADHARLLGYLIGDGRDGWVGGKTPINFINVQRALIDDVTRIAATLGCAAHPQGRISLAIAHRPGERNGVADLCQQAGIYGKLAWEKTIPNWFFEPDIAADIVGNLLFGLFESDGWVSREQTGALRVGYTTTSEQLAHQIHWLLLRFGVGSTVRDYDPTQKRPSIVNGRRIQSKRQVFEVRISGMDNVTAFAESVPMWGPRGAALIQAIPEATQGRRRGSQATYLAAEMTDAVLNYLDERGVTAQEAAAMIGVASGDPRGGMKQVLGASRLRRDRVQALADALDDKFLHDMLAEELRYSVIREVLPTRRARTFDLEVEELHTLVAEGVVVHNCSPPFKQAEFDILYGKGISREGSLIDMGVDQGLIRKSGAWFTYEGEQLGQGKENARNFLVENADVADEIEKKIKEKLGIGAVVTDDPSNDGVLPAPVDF

[2] = NIH:OVCAR-3 ovarian cancer cell cytotoxicity, dose response, PAX8 inhibitor project, plate reader, dry powder samples (AID 743044); type: functional, cell-based
[3] = cytotoxicity in OVCAR8 ovarian cancer cells, dose response, PAX8 project, cell-based, plate reader, dry powder samples (AID 743197); type: functional; settings: OVCAR-8
Paired box protein Pax-8 = Paired box protein Pax-8 (Homo sapiens, UniProt Q06710); assay: inhibitors of PAX8-driven TPO luciferase reporter, dose response, RMG-I cells, cherry-pick (AID 687027); type: functional, cell-based;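 further: luciferase reporter driven by Pax8 target thyroperoxidase promoter measured by SteadyGlo luminescence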
Paired box protein Pax-8, sequence (Q06710 whole entry): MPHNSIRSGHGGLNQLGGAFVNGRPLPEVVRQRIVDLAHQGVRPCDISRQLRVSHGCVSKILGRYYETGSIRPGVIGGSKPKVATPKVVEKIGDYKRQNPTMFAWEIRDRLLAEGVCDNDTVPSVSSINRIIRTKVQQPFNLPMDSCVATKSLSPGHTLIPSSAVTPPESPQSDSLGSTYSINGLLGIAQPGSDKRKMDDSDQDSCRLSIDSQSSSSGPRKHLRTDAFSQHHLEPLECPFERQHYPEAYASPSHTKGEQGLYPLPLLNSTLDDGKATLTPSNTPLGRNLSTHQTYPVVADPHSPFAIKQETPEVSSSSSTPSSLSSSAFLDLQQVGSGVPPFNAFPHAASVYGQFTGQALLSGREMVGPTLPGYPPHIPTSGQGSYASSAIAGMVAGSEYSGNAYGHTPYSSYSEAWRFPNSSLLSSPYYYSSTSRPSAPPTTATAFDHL

[4] = IGROV1 ovarian cancer cell cytotoxicity, dose response, PAX8 inhibitor project, plate reader, dry powder samples (AID 743043); type: functional, cell-based; settings: IGROV-1
[5] = P. falciparum Dd2 growth inhibitors, dose response, SYBR Green, cherry-picked samples (AID 1159567); type: functional, cell-based
[6] = HepG2 cell cytotoxicity, dose response, cytotoxicity control, cherry-picked samples (AID 1159577); type: functional, cell-based
[7] = LGR2 antagonists, dose response, cell-based, HEK293, CRE-luciferase reporter, cherry pick, set 2 (AID 743343); type: functional;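 further: transfected cells were stimulated with diluted bursicon conditioned medium after compound addition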
[8] = MC4R antagonists, dose response, counter-screen for LGR2 antagonist project, cell-based, plate reader, cherry pick (AID 743444); type: functional;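 further: transfected HEK 293 cells stimulated with alpha-MSH peptide; potency of inhibitors of the alpha-MSH evoked signal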
[9] = target: T3, Heat shock factor protein 1 (Mus musculus, UniProt P38532); assay: inhibition of MG132-induced HSE-luciferase signal, confirmation, cell-based, NIH3T3, luminescence, dose retest (AID 2382); type: functional;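 further: NIH3T3 fibroblasts with HSF1-driven luciferase reporter stressed by proteasome inhibitor MG132; luminescence from HSF1-driven luciferase expression after 8 hours of MG132 stress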
T3 sequence (P38532 whole entry): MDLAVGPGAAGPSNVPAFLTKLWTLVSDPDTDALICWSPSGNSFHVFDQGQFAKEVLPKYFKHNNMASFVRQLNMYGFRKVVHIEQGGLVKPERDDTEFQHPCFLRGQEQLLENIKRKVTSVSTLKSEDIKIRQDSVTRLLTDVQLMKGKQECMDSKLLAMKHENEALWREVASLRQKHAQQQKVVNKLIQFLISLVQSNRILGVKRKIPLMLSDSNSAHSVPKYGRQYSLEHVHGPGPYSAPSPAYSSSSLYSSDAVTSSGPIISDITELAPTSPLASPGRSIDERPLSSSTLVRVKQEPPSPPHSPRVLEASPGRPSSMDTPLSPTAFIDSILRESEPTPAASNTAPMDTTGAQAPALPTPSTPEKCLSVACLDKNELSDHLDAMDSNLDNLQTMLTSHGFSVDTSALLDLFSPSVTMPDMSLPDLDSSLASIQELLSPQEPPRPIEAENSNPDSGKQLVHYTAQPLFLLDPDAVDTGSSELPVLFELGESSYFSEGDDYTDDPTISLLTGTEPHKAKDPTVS

[10] = Shn3 3'UTR reporter inhibitors, dose response, cell-based, Clone20 osteoblasts, firefly luciferase, cherry-picked (AID 624132); type: functional;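 further: firefly luciferase luminescence from reporter carrying the Shn3 3'UTR in osteoblasts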
[11] = A549 cell cytotoxicity, dose response, cytotoxicity control, plate reader, cherry-pick, antagonist series (AID 743412); type: functional, cell-based
[12] = control 3'UTR Renilla luciferase suppression, dose response, counter-screen for Shn3 inhibitor project, cell-based, Clone20-Shn3RL, cherry-picked (AID 624133); type: functional
Estrogen receptor beta [13] = target: T4, Estrogen receptor beta (Homo sapiens, UniProt Q92731); assay: ERβ–SRC-3 coactivator interaction inhibitors, confirmation, orthogonal assay, biochemical, ELISA, streptavidin-HRP readout (AID 1060)
T4 sequence (Q92731 whole entry): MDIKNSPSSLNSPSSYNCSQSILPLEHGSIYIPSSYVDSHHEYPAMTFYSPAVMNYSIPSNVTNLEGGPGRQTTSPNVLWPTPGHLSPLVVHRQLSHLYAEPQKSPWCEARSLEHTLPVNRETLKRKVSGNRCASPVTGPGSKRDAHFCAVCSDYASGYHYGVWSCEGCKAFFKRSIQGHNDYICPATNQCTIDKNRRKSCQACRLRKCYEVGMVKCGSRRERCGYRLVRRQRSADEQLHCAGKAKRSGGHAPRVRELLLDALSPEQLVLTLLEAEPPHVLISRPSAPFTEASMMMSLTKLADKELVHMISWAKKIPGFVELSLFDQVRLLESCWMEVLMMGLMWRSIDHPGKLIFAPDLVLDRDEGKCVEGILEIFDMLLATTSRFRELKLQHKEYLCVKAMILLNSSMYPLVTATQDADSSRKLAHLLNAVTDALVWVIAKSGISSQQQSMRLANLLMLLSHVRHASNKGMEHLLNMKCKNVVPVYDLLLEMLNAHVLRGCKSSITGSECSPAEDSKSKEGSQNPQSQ

Estrogen receptor beta [14] = target: T4, Estrogen receptor beta
[15] = target: T5, Oxysterols receptor LXR-beta (Homo sapiens, UniProt P55055); type: functional, cell-based;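 further: agonist activity at LXR measured by a cell-based luminescence readout across a dose range, run as a counterscreen for daf-12 agonists; HEK293 cells with Gal4-LXR fusion and GAL4-driven luciferase reporter; potency for activation of Gal4-LXR reporter so compounds are agonists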
T5 sequence (P55055 whole entry): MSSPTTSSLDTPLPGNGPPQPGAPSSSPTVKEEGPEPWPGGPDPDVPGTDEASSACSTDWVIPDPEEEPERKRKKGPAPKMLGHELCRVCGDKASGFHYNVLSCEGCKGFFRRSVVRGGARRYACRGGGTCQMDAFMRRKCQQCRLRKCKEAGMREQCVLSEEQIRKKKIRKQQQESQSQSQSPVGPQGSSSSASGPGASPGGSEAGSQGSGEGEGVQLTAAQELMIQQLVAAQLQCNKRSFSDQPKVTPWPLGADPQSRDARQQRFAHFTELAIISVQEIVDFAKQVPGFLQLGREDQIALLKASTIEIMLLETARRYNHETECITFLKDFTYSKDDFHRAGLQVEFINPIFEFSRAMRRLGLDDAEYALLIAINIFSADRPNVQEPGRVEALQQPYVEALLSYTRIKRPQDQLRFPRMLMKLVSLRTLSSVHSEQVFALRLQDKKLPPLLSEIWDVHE

[16] = inhibitors of PGC1a acetylation in cells, dose response, cell-based, cherry-picked samples (AID 720514); type: functional;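 further: potency may reflect raised or lowered acetylation signal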
Protein skinhead-1 = target: T6, Protein skinhead-1 (Caenorhabditis elegans, UniProt P34707); type: functional
T6 sequence (P34707 whole entry): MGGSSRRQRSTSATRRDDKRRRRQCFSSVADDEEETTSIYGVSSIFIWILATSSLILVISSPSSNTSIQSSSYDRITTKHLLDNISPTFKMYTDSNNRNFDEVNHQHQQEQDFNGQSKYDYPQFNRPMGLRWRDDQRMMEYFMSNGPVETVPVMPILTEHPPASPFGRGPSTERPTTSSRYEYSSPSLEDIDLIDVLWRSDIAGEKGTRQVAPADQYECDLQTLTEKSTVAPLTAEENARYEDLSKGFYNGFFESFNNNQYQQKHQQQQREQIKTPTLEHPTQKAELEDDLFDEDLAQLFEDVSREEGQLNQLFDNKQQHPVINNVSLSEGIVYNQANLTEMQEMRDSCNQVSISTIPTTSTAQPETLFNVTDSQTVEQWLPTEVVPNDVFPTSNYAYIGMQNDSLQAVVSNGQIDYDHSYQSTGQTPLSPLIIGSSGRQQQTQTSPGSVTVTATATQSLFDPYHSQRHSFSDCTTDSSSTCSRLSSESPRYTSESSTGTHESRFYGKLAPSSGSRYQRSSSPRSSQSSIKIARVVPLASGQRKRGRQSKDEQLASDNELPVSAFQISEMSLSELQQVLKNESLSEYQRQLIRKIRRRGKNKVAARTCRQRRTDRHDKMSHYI

CCCCNC(=O)c1c(N)n(Cc2ccc3c(c2)OCO3)c2nc3ccccc3nc12
AC50 [1]: 19.4 µM (active)
EC50 (Protein RecA): 56.3 µM (active)

Cc1ccc(S(=O)(=O)Nc2ccc3c(c2)C(=O)N([C@@H](C)CO)C[C@H](C)[C@@H](CN(C)Cc2ccc(C(F)(F)F)cc2)OCCCC[C@@H](C)O3)cc1
AC50 [2]: 11.4 µM (active)
AC50 [3]: 30.4 µM (active)
AC50 (Paired box protein Pax-8): 5.99 µM (active)
AC50 [4]: 33.1 µM (active)

O=C(Nc1cc(F)ccc1F)N1CC(=O)N2[C@H](CO)[C@@H](c3ccc(C#CC4CCCCC4)cc3)[C@@H]2C1
AC50 [5]: 13.3 µM (active)
AC50 [6]: 40.3 µM (active)

O=C(O)c1cccc(COc2ccc(CO)cc2Cl)c1
AC50 [7]: 0.296 µM (active)
AC50 [8]: 0.274 µM (active)
EC50 [9]: 0.375 µM (active)
AC50 [10]: 1.04 µM (active)
AC50 [11]: > 52 µM (inactive)
AC50 [12]: 35 µM (active)

CCCOC(=O)c1cc(-c2ccc(/C=C3/C(=O)N(C)C(=O)C(C#N)=C3C)o2)ccc1Cl
IC50 (Estrogen receptor beta [13]): 10.3 µM (not active)
IC50 (Estrogen receptor beta [14]): > 50 µM (not active)

N=C1/C(=C/c2ccc(OCc3ccccc3F)cc2)C(=O)N=C2SC(CC(=O)N3CCOCC3)=NN12
EC50 [15]: > 67.5 µM (inactive)

Cc1cc(O)nc(SCC(=O)c2ccc(F)c(C)c2)n1
AC50 [16]: 26.9 µM (active)

C[C@H]1CCCCO[C@@H](CN(C)Cc2ccc(C(F)(F)F)cc2)[C@@H](C)CN([C@@H](C)CO)C(=O)c2cc(NS(=O)(=O)c3ccccc3)ccc2O1
AC50 [2]: 58.1 µM (active)
AC50 [3]: > 70 µM (inactive)
AC50 (Paired box protein Pax-8): 7.08 µM (active)
AC50 [4]: 47.8 µM (active)

O=c1c2ccccc2nnn1CCc1ccccc1
EC50 [15]: > 67.4 µM (inactive)

Cc1cc(C(=O)CSc2cccc[n+]2[O-])c(C)n1-c1ccccc1
EC50 [15]: > 67.5 µM (inactive)

COc1cccc(-c2ccc([C@@H]3[C@H]4CNC[C@@H]3N4Cc3ccc4c(c3)OCO4)cc2)c1
AC50 [16]: 34.3 µM (active)

Cc1ccccc1S(=O)(=O)N1CCCCN2[C@H](CO)[C@H](c3ccc(-c4ccccc4)cc3)[C@H]2C1
AC50 [5]: 1.05 µM (active)
AC50 [6]: 8.53 µM (active)

Brc1ccc(-c2noc(-c3ccccc3)n2)o1
IC50 (Protein skinhead-1): > 100 µM (inactive)
EC50 [15]: > 67.6 µM (inactive)

C[C@H]1CCCCO[C@@H](CN(C)Cc2ccc(C(F)(F)F)cc2)[C@@H](C)CN([C@@H](C)CO)C(=O)c2cc(NC(=O)c3ccccc3)ccc2O1
AC50 [2]: 6.48 µM (active)
AC50 [3]: > 70 µM (inactive)
AC50 (Paired box protein Pax-8): 7.47 µM (active)
AC50 [4]: 29.4 µM (active)
